# In ChEMBL document CHEMBL5113527, “First-in-Class Hydrazide-Based HDAC6 Selective Inhibitor with Potent Oral Anti-Inflammatory Activity by Attenuating NLRP3 Inflammasome Activation” (J Med Chem, 2022):
# Calls of active or inactive are those of the source. No cut-off for these calls is given here.
# How the values were obtained:
# [1] = Cmax in CD-1 mouse at 5 mg/kg, iv measured after 0.083 to 24 hrs by LC-MS/MS analysis; type: ADME, organism-based; set-up: dose 5 mg/kg, time 0.083-24 hrs, route iv; conditions: in vivo
# [2] = AUC(0 to infinity) in CD-1 mouse at 5 mg/kg, iv measured after 0.083 to 24 hrs by LC-MS/MS analysis; type: ADME, organism-based; set-up: dose 5 mg/kg, time upper 24 hrs, time lower 0.083 hrs, route iv; conditions: in vivo
# [3] = Half life in CD-1 mouse at 5 mg/kg, iv measured after 0.083 to 24 hrs by LC-MS/MS analysis; type: ADME, organism-based; conditions: in vivo, time 0.083-24 hrs
# [4] = Inhibition of HDAC11(unknown origin) preincubated for 1 hr followed by substrate addition and measured after 2 hrs by fluorescence based microplate reader analysis; set-up: species or system Homo sapiens
# Histone deacetylase 2 [5] = molecular target: T1, Histone deacetylase 2 (Homo sapiens, UniProt Q92769); assay: Inhibition of recombinant HDAC2 (unknown origin) using Boc-Lys(acetyl)-AMC as substrate preincubated for 1 hr followed by substrate addition and measured after 2 hrs by fluorescence based microplate reader analysis
# Histone deacetylase 1 [6] = molecular target: T2, Histone deacetylase 1 (Homo sapiens, UniProt Q13547); assay: Inhibition of recombinant HDAC1 (unknown origin) using Boc-Lys(acetyl)-AMC as substrate preincubated for 1 hr followed by substrate addition and measured after 2 hrs by fluorescence based microplate reader analysis
# Homo sapiens = species: Homo sapiens; assay: Selectivity index, ratio of IC50 for recombinant HDAC1(unknown origin) to IC50 for full length recombinant human HDAC6
# [7] = molecular target: T3, Protein deacetylase HDAC6 (Homo sapiens, UniProt Q9UBN7); assay: Inhibition of recombinant HDAC6 (unknown origin) using Boc-Lys(acetyl)-AMC as substrate preincubated for 1 hr followed by substrate addition and measured after 2 hrs by fluorescence based microplate reader analysis
# T3 sequence (Q9UBN7 whole entry): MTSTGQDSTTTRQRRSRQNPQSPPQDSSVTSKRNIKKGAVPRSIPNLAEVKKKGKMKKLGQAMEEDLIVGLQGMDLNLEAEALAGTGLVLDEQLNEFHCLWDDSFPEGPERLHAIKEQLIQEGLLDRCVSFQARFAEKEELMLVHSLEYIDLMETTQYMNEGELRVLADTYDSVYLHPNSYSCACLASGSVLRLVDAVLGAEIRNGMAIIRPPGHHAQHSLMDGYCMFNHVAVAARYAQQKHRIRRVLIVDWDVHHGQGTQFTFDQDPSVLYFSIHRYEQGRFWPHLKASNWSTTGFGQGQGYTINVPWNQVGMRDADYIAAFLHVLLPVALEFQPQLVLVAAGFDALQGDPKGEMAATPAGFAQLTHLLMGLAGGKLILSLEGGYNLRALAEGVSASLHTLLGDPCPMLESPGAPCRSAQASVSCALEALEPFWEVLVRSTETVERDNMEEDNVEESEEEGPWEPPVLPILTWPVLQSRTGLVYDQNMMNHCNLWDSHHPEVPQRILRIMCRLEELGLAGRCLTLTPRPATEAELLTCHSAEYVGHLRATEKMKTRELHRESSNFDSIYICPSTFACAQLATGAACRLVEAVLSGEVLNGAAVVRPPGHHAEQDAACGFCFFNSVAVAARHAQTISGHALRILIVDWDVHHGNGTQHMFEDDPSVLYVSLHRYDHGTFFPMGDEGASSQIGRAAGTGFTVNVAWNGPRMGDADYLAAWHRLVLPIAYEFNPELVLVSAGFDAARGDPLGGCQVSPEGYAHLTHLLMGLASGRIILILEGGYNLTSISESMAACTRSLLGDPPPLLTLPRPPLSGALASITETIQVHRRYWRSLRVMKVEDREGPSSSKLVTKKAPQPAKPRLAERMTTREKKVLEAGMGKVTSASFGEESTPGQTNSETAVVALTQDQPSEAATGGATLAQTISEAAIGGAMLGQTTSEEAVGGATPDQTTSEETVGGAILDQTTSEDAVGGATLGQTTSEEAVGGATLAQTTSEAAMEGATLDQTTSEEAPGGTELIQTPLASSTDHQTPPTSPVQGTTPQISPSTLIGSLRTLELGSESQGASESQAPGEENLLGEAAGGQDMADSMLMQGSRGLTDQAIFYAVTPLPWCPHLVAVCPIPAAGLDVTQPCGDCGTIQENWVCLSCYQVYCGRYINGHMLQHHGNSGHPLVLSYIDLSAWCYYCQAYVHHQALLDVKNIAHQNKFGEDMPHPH
# Histone deacetylase 3 [8] = molecular target: T4, Histone deacetylase 3 (Homo sapiens, UniProt O15379); assay: Inhibition of recombinant HDAC3 (unknown origin) using Boc-Lys(acetyl)-AMC as substrate preincubated for 1 hr followed by substrate addition and measured after 2 hrs by fluorescence based microplate reader analysis
# Histone deacetylase 1 [9] = molecular target: T2, Histone deacetylase 1; assay: Inhibition of HDAC1 (unknown origin)
# Histone deacetylase 2 [10] = molecular target: T1, Histone deacetylase 2; assay: Inhibition of HDAC2 (unknown origin)
# Histone deacetylase 3 [11] = molecular target: T4, Histone deacetylase 3; assay: Inhibition of HDAC3 (unknown origin)
# [12] = Cmax in CD-1 mouse at 30 mg/kg, po measured after 0.083 to 24 hrs by LC-MS/MS analysis; type: ADME, organism-based; set-up: time upper 24 hrs, time lower 0.083 hrs, dose 30 mg/kg, route po; conditions: in vivo
# [13] = Cmax in CD-1 mouse at 3 mg/kg, iv measured after 0.083 to 24 hrs by LC-MS/MS analysis; type: ADME, organism-based; set-up: time upper 24 hrs, time lower 0.083 hrs, dose 3 mg/kg, route iv; conditions: in vivo
# [14] = AUC(0 to infinity) in CD-1 mouse at 30 mg/kg, po measured after 0.083 to 24 hrs by LC-MS/MS analysis; type: ADME, organism-based; set-up: dose 30 mg/kg, time upper 24 hrs, time lower 0.083 hrs, route po; conditions: in vivo
# J774.A1 [15] = assay: Inhibition of HDAC6/dynein interaction in mouse J774.A1 cells measured after 8 hrs by co-immunoprecipitation based Western blotting analysis; type: cell-based
# [16] = AUC(0 to infinity) in CD-1 mouse at 3 mg/kg, iv measured after 0.083 to 24 hrs by LC-MS/MS analysis; type: ADME, organism-based; set-up: dose 3 mg/kg, time upper 24 hrs, time lower 0.083 hrs, route iv; conditions: in vivo
# J774.A1 [17] = assay: Inhibition of NLRP3 inflammasome activation in mouse J774.A1 cells assessed as cleavage of pro-caspase 1 to p20 measured at 5 to 20 microM after […] by Western blot analysis; type: functional, cell-based; conditions: dose 5-20 µM
# J774.A1 [18] = assay: Inhibition of NLRP3 inflammasome activation in mouse J774.A1 cells assessed as cleavage of pro-caspase 1 to p20 measured at 20 microM after […] by Western blot analysis; type: functional, cell-based; conditions: DDE = dose-dependent effect
# T1 sequence (Q92769 whole entry): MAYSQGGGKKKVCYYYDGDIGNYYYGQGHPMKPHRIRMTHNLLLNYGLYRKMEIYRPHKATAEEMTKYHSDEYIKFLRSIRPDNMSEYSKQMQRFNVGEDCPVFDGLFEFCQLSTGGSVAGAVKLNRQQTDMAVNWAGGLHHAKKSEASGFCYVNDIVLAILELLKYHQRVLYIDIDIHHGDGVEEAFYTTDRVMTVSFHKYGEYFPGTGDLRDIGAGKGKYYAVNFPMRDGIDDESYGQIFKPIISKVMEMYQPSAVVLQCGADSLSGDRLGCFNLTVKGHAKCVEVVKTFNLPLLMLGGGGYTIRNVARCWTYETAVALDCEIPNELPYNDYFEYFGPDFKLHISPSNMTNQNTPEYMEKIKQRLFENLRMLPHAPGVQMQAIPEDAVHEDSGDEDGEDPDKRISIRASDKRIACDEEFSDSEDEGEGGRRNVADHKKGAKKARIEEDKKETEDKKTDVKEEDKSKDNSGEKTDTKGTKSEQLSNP
# T2 sequence (Q13547 whole entry): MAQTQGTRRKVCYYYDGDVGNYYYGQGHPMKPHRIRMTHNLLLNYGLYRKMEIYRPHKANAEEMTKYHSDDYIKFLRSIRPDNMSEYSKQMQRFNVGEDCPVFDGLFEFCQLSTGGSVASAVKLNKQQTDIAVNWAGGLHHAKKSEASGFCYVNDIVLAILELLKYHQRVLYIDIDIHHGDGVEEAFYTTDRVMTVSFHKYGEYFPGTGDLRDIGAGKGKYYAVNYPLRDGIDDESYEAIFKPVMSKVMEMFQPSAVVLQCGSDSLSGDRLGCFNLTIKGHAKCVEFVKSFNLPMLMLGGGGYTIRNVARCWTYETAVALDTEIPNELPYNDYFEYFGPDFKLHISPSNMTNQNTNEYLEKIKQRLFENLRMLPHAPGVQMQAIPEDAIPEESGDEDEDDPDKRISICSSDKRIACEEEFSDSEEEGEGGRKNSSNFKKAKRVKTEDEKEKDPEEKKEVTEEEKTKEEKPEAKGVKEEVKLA
# T4 sequence (O15379 whole entry): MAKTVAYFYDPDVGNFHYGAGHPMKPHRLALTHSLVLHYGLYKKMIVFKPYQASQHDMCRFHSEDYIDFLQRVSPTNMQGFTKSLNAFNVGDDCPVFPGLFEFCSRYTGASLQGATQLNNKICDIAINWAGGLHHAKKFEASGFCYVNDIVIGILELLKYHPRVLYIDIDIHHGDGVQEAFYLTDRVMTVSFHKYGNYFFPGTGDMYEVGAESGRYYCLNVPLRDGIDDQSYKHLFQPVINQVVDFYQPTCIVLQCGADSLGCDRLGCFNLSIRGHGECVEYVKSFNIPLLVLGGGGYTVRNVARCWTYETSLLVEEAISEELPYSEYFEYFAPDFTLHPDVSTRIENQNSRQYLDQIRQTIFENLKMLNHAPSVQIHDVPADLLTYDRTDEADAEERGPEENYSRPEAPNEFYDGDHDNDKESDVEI
SMILES,IC50 (Histone deacetylase 2 [5]) [µM],IC50 (Histone deacetylase 1 [6]) [µM],Ratio IC50 (Homo sapiens),IC50 [7] [µM],IC50 (Histone deacetylase 3 [8]) [µM],other results
O=C(CCCCCCNC(=O)c1cnc(N(c2ccccc2)c2ccccc2)nc1)NO [RICOLINOSTAT],,,,,,Cmax [1]: 0.372 µg/mL; AUC(0-inf) [2]: 0.342 µg·h/mL; half-life [3]: 2.62 h; IC50 [4]: > 5 µM
CCNNC(=O)c1ccc(CN2c3ccccc3CCc3ccccc32)cc1,> 5,> 5,> 20,0.25,3.95,
CCNNC(=O)c1ccc(CN2c3ccccc3Oc3ccccc32)cc1,> 5,> 5,> 6,0.843,3.13,
CCNNC(=O)c1ccc(Cn2c3ccccc3c3cccnc32)cc1,2.34,2.86,77,0.037,1.59,
O=C(CS)NCCCCNc1c(Cl)cc(Cl)c2cccnc12,,6.68,,,,IC50 (Histone deacetylase 1 [9]): 6.68 µM
CCNNC(=O)c1ccc(Cn2c3c(c4ccccc42)CCCC3)cc1,> 5,> 5,> 11,0.455,> 5,
CCCNNC(=O)c1ccc(CNC(=O)c2ccccc2)cc1,,0.013,0.002,> 5,,
CCNNC(=O)c1ccc(CN2c3ccccc3C=Cc3ccc(F)cc32)cc1,4.12,2.52,68,0.037,0.563,
CCNNC(=O)c1ccc(CN2c3ccccc3Sc3cccnc32)cc1,> 5,3.99,65,0.061,1.77,
CCCCN(Cc1ccc(C(=O)NNCC)cc1)C(=O)Nc1ccccc1,0.078,0.341,2.5,0.132,0.191,
O=C(NO)c1ccc(CN2CCCc3ccccc32)cc1,,,,,,IC50 (Histone deacetylase 2 [10]): 32.8 µM; IC50 (Histone deacetylase 3 [11]): 29.5 µM
CN1CCc2c(c3ccccc3n2Cc2ccc(C(=O)NO)cc2)C1 [TUBASTATIN A],,,,,,Cmax [12]: 0.135 µg/mL; Cmax [13]: 1.25 µg/mL; AUC [14]: 0.134 µg·h/mL; inhibition (J774.A1 [15]): Active; AUC [16]: 0.227 µg·h/mL; IC50 [4]: > 5 µM
CCNNC(=O)c1ccc(CN2c3ccccc3CC(=O)c3ccccc32)cc1,> 5,3.92,37,0.105,> 5,
CCCCN(Cc1ccc(C(=O)NO)cc1)C(=O)Nc1ccccc1 [NEXTURASTAT A],,,,,,IC50 (Histone deacetylase 3 [11]): 6.08 µM
CCNNC(=O)c1ccc(CN2c3ccccc3Cc3ccccc32)cc1,> 5,3.19,13,0.235,1.43,
CCNNC(=O)c1ccc(CN2c3ccccc3C=Cc3ccccc32)cc1,> 5,2.3,54,0.042,1.61,
CCNNC(=O)c1ccc(CNc2cccc3cccnc23)cc1,0.082,0.659,,0.041,0.147,
CNNC(=O)c1ccc(CNC(=O)c2ccccc2)cc1,,4.62,5.2,0.878,,
CCNNC(=O)c1ccc(Cn2ccc3cc(C(=O)c4ccc(OC)cc4)ccc32)cc1,0.913,0.543,1.2,0.449,0.217,
CCNNC(=O)c1ccc(CN2c3ccccc3C=Cc3nc(C)nc(C)c32)cc1,> 5,2.26,48,0.047,1.16,
CNS(=O)(=O)c1ccc(CCNC(=O)c2cc(Cl)ccc2OC)cc1,,,,,,Activity (J774.A1 [17]): Active; inhibition (J774.A1 [18]): Dde
CCNNC(=O)c1ccc(CNC(=O)c2ccccc2)cc1,,0.399,5.1,0.078,,
CCNNC(=O)c1coc(-c2ccc(Br)cc2)c1,> 5,> 5,,> 5,> 5,
CCNNC(=O)c1csc(-c2cccnc2)n1,0.316,> 5,,> 5,> 5,
O=C(NO)c1ccc(CC(=O)N(CCO)c2ccccc2)cc1,,,,,,IC50 (Histone deacetylase 1 [9]): 0.842 µM; IC50 (Histone deacetylase 2 [10]): 2.21 µM; IC50 (Histone deacetylase 3 [11]): 2.08 µM
CCNNC(=O)c1ccc(CN2c3ccccc3Sc3ccccc32)cc1,> 5,> 5,> 28,0.175,3.96,

# Continued, in another order:
IC50 (Histone deacetylase 2 [5]) [µM],IC50 (Histone deacetylase 1 [6]) [µM],Ratio IC50 (Homo sapiens),IC50 [7] [µM],IC50 (Histone deacetylase 3 [8]) [µM],SMILES,other results
> 5,> 5,> 29,0.173,1.85,CCNNC(=O)c1ccc(CN2c3ccccc3C=Cc3ccc(C(F)(F)F)cc32)cc1,
0.041,0.08,5,0.016,0.026,CCNNC(=O)c1ccc(Cn2nnnc2-c2cccs2)cc1,
4.38,> 5,> 68,0.073,> 5,CCNNC(=O)c1ccc(Cn2c3ccccc3c3ccncc32)cc1,
0.006,0.003,,0.034,0.0009,CCNNC(=O)c1ccc(CNC(=O)Nc2cccc3cccnc23)cc1,
1.2,1.69,11,0.145,0.077,CCNNC(=O)c1ccc(Cn2c(=O)n(CCc3ccccc3)c(=O)c3ccccc32)cc1,
3.23,> 5,> 45,0.11,4.61,CCNNC(=O)c1ccc(Cn2c3ccccc3c3cnccc32)cc1,
0.187,1.27,6.7,0.189,0.446,CCCCN(Cc1ccc(C(=O)NNCC)cc1)C(=O)c1ccccc1,
0.233,1.43,0.9,1.53,0.446,CCNNC(=O)c1ccc(NC(=O)Nc2cccc3cccnc23)cc1,
> 5,> 5,> 14,0.361,2.33,CCNNC(=O)c1ccc(Cn2c3ccccc3c3ccccc32)cc1,
4.39,2.27,30,0.076,0.469,CCNNC(=O)c1ccc(CN2c3ccccc3C=Cc3ccc(C)cc32)cc1,
